{"source": "patent US20240180865A1", "about": "“SUSTAINED-RELEASE LIPID PRE-CONCENTRATE” (TIONLAB THERAPEUTICS, priority 2021, published 2024)", "assay": "Peroxide value of liquid crystal former according to type of stabilizer", "format": "physicochemical", "conditions": "0.3 g stabilizer in 3 g safflower oil, castor oil, cottonseed oil or oleic acid; 60° C. for two weeks", "protocol": "0.3 g of each of tocopherol, ViC_palmitate, mannitol, and ViC_Na was added as stabilizers to 3 g of each of safflower oil, castor oil, cottonseed oil, and oleic acid. After the resulting mixture was heated at 45 to 60° C. after DI treatment, it was cooled to room temperature and left to stand for 3 hours.\nThe degree of rancidity was evaluated by allowing the mixture to stand under harsh conditions of 60° C. for two weeks to measure the peroxide value of the liquid crystal former.\nIn order to measure the peroxide value, 0.3 g of the sample was weighed into a 300-ml Erlenmeyer flask, and then 30 ml of a solution of chloroform:glacial acetic acid (2:3) was added thereto. After a temporary dark place was created with silver foil paper, 1 ml of a KI saturated solution was added, and the resulting mixture was shaken vigorously, and then left to stand in the dark place for 5 minutes. Thereafter, 30 ml of distilled water was again added thereto, 1 ml of a 1% starch solution was added thereto, and then the resulting mixture was vigorously mixed. Thereafter, the mixture was titrated with a 0.01 N-Na2S2O3 standard solution while stirring with a magnetic stirrer, and the end point was set to the time when the dark blue color of the starch disappeared. Thereafter, the peroxide value of the sample was determined using the following equation. […]", "data": [{"compound": "CCCCCCCCCCCCCCCC(=O)OC[C@H](O)[C@H]1OC(=O)C(O)=C1O", "note": "[ViC_palmitate, ascorbic palmitate]", "values": [{"measurement": "peroxide value of the liquid crystal former", "result": "the peroxide values of all the liquid crystal formers used in this test example were low"}]}, {"compound": "tocopherol", "values": [{"measurement": "peroxide value of the liquid crystal former", "result": "the peroxide value is higher than when no stabilizer is used"}]}]}
